# The source made the active and inactive calls. The calls are words filed in the database; no cut-off is given here.
# Experiments:
# Mus musculus [1] = assay: Antidepressant activity in Swiss albino mouse assessed as decrease in immobility time at 30 mg/kg, ip measured for 6 mins by forced swim test; type: functional, organism-based; parameters: dose 30 mg/kg
# Mus musculus [2] = assay: Antidepressant activity in Swiss albino mouse assessed as decrease in immobility duration at 30 mg/kg, ip administered 30 mins prior to test measured after 30 mins by tail suspension test (reference value: 79.9%); type: functional; parameters: scale not given: the % may be the effect or the level left; settings: route intraperitoneal
# Mus musculus [3] = assay: Antidepressant activity in Swiss albino mouse assessed as decrease in immobility duration at 0.5 mg/kg, ip administered 30 mins prior to test measured after 30 mins by tail suspension test (reference value: 79.9%); type: functional; parameters: scale not given: the % may be the effect or the level left; settings: route intraperitoneal
# [4] = Solubility of the compound; type: physicochemical
# Mus musculus [5] = assay: Antidepressant activity in Swiss albino mouse assessed as decrease in immobility time at 0.5 mg/kg, ip measured for 6 mins by forced swim test; type: functional, organism-based; parameters: dose 0.5 mg/kg
# Mus musculus [6] = assay: Neurotoxicity in Swiss albino mouse assessed as deffect in motor coordination at 1 mg/kg, ip measured for 2 mins by rotarod test; type: toxicity, organism-based; parameters: dose 1 mg/kg, route intraperitoneal; settings: in vivo
# Mus musculus [7] = assay: Antidepressant activity in Swiss albino mouse assessed as decrease in immobility time at 0.25 mg/kg, ip measured for 6 mins by forced swim test; type: functional, organism-based; parameters: dose 0.25 mg/kg
compound,measurement,setting,value
CN(C)CCCN1c2ccccc2CCc2ccccc21 [IMIPRAMINE],Activity,Mus musculus [1],Active
same,Activity,Mus musculus [2],20.6%
COc1ccc(-c2cc3cc(C=O)cc(C)c3oc2=O)cc1,Activity,Mus musculus [3],78.1%
CCC(C)c1cc(C=O)cc2cc(-c3ccc(OC)c(OC)c3)c(=O)oc12 (stereo not given),Activity,Mus musculus [3],72.5%
COc1ccc(-c2cc3cc(C)c4ccccc4c3oc2=O)cc1OC,solubility,[4],Insoluble
CCC(C)c1cc(C=O)cc2cc(-c3cccc(OC)c3)c(=O)oc12 (stereo not given),Activity,Mus musculus [3],70.6%
CCC(C)c1cc(C=O)cc2cc(-c3ccc(OC)cc3)c(=O)oc12 (stereo not given),Activity,Mus musculus [3],71.4%
COc1ccc(-c2cc3cc(C=O)cc(C)c3oc2=O)c(OC)c1OC,Activity,Mus musculus [5],Active
same,Activity,Mus musculus [6],Non-toxic
same,Activity,Mus musculus [3],47.3%
COc1ccc(-c2cc3cc(C=O)cc(C)c3oc2=O)cc1OC,Activity,Mus musculus [5],Active
same,Activity,Mus musculus [6],Non-toxic
same,Activity,Mus musculus [7],Active
same,Activity,Mus musculus [3],39.1%
COc1ccccc1-c1cc2cc(C=O)cc(C)c2oc1=O,solubility,[4],Insoluble
COc1ccc(-c2cc3cc(C)c4ccccc4c3oc2=O)c(OC)c1OC,Activity,Mus musculus [3],63.6%
COc1ccc(-c2cc3cc(C)c4ccccc4c3oc2=O)cc1,Activity,Mus musculus [5],Active
same,Activity,Mus musculus [6],Non-toxic
same,Activity,Mus musculus [7],Active
same,Activity,Mus musculus [3],49.9%

# — ChEMBL document CHEMBL1759998, “Discovery and synthesis of novel 3-phenylcoumarin derivatives as antidepressant agents” (Bioorg Med Chem Lett, 2011)
